Tested on: IL-1β release upon NLRP3 activation in peripheral blood mononuclear cells (PBMC)
Assay: PBMC IC50 Determination Assay
Format: cell-based
Conditions: Homo sapiens; PBMC from buffy coats, LPS 3 h, compound 30 min, then ATP (5 mM) or nigericin (10 μM) 1 h; IL-1β in media by ELISA (Protocol A) or HTRF (Protocol B)
Protocol: The compounds of the present disclosure were tested for their inhibitory activity against IL-1β release upon NLRP3 activation in peripheral blood mononuclear cells (PBMC).
Protocol A. PBMC were isolated from buffy coats by density gradient centrifugation on Histopaque-1077 (Sigma, cat no. 10771). Isolated cells were seeded into the wells of a 96-well plate and incubated for 3 h with lipopolysaccharide (LPS). Following medium exchange, the compounds of the present disclosure were added (a single compound per well) and the cells were incubated for 30 min. Next, the cells were stimulated either with ATP (5 mM) or nigericin (10 μM) for 1 h and the cell culture media from the wells were collected for further analysis.
The release of IL-1β into the media was determined by a quantitative detection of IL-1β in the media using an IL-1p enzyme-linked immunosorbent assay (ELISA) Ready-SET-Go!, eBioscience cat. No. 88-7261-88. Briefly, in a first step, high affinity binding plates (Corning, Costar 9018 or NUNC Maxisorp Cat No. 44-2404) were coated overnight at 4° C. with specific capture antibody included in the kit (anti-human IL-1β ref 14-7018-68). Subsequently, plates were blocked with blocking buffer for 1 h at room temperature (rt) and after washing with a buffer (PBS with 0.05% Tween-20) incubated with protein standard and culture media. After 2 h of incubation at rt, plates were washed and incubated with biotinylated detection antibody included in the kit (anti-human IL-1β Biotin ref. 33-7110-68) for 1 h at rt. Plates were washed and incubated with HRP-streptavidin for 30 min at rt and washed again. The signal was developed after addition of 3,3′,5,5′-tetramethylbenzidine-peroxidase (TMB) until colour appeared and the reaction was stopped by 2 M H2SO4. A microplate spectrophotometer (BioTek) was used to detect signals with 450 nm. The detection range of IL-1β ELISA was […].
Protocol B. PBMC were isolated from buffy coats by density gradient centrifugation on Histopaque-1077 (Sigma, cat no. 10771). Isolated cells were seeded into the wells (280,000 cells/well) of a 96-well plate and incubated for 3 h with lipopolysaccharide (LPS, 1 μg/mL diluted 1000× from a 1 mg/mL stock solution). The compounds of the present disclosure were added (a single compound per well) and the cells were incubated for 30 min. Next, the cells were stimulated with ATP (5 mM final concentration diluted 20× from a 100 mM stock solution) for 1 h and the cell culture media from the wells were collected for further analysis.
The release of IL-1β into the media was determined by quantitative detection of IL-1β in the media using HTRF®, CisBio cat. No. 62HIL1BPEH. Briefly, cell culture supernatant were dispensed directly into the assay plate containing antibodies labelled with the HTRF® donor and acceptor. A microplate spectrophotometer (BMG) was used to detect signals at 655 nm and 620 nm. The detection range of IL-1β HTRF® was 39-6500 μg/mL.

SMILES: CCc1cc2c(s1)C(=O)N(CC(=O)Nc1ccc3nncn3n1)CC21CC1 [Compound 45, 2-{2′-Ethyl-7′-oxo-6′,7′-dihydro-5′H-spiro[cyclopropane-1,4′-thieno[2,3-c]pyridin]-6′-yl}-N-{[1,2,4]triazolo[4,3-b]pyridazin-6-yl}acetamide]
- IC50: 100 to 1000 nM

SMILES: CCc1cc2c(s1)C(=O)N(CC(=O)Nc1ncco1)CC21CC1 [Compound 46, 2-{2′-Ethyl-7′-oxo-6′,7′-dihydro-5′H-spiro[cyclopropane-1,4′-thieno[2,3-c]pyridin]-6′-yl}-N-(1,3-oxazol-2-yl)acetamide]
- IC50: 100 to 1000 nM

SMILES: CCc1cc2c(s1)C(=O)N(CC(=O)Nc1ccc3nncn3c1)CC21CC1 [Compound 47, 2-{2′-Ethyl-7′-oxo-6′,7′-dihydro-5′H-spiro[cyclopropane-1,4′-thieno[2,3-c]pyridin]-6′-yl}-N-{[1,2,4]triazolo[4,3-a]pyridin-6-yl}acetamide]
- IC50: 1000 to 3000 nM

SMILES: CCc1cc2c(s1)C(=O)N(CC(=O)Nc1ccc(OC)nc1)CC21CC1 [Compound 48, 2-{2′-Ethyl-7′-oxo-6′,7′-dihydro-5′H-spiro[cyclopropane-1,4′-thieno[2,3-c]pyridin]-6′-yl}-N-(6-methoxypyridin-3-yl)acetamide]
- IC50: 3000 to 10000 nM

SMILES: CCc1cc2c(s1)C(=O)N(CC(=O)Nc1ccc3[nH]c(=O)n(C)c3c1)CC21CC1 [Compound 49, 2-{2′-Ethyl-7′-oxo-6′,7′-dihydro-5′H-spiro[cyclopropane-1,4′-thieno[2,3-c]pyridin]-6′-yl}-N-(3-methyl-2-oxo-2,3-dihydro-1H-1,3-benzodiazol-5-yl)acetamide]
- IC50: 3000 to 10000 nM

SMILES: CCc1cc2c(s1)C(=O)N(CC(=O)Nc1ccncn1)CC21CC1 [Compound 50, 2-{2′-Ethyl-7′-oxo-6′,7′-dihydro-5′H-spiro[cyclopropane-1,4′-thieno[2,3-c]pyridin]-6′-yl}-N-(pyrimidin-4-yl)acetamide]
- IC50: 100 to 1000 nM

SMILES: CCc1cc2c(s1)C(=O)N(CC(=O)Nc1nccc(=O)[nH]1)CC21CC1 [Compound 51, 2-{2′-Ethyl-7′-oxo-6′,7′-dihydro-5′H-spiro[cyclopropane-1,4′-thieno[2,3-c]pyridin]-6′-yl}-N-(6-oxo-1,6-dihydropyrimidin-2-yl)acetamide]
- IC50: 3000 to 10000 nM

SMILES: CCc1cc2c(s1)C(=O)N(CC(=O)Nc1ncc(-n3cccn3)cn1)CC21CC1 [Compound 52, 2-{2′-Ethyl-7′-oxo-6′,7′-dihydro-5′H-spiro[cyclopropane-1,4′-thieno[2,3-c]pyridin]-6′-yl}-N-[5-(1H-pyrazol-1-yl)pyrimidin-2-yl]acetamide]
- IC50: 1000 to 3000 nM

SMILES: CCc1cc2c(s1)C(=O)N(CC(=O)Nc1ncc([N+](=O)[O-])cn1)CC21CC1 [Compound 53, 2-{2′-Ethyl-7′-oxo-6′,7′-dihydro-5′H-spiro[cyclopropane-1,4′-thieno[2,3-c]pyridin]-6′-yl}-N-(5-nitropyrimidin-2-yl)acetamide]
- IC50: 100 to 1000 nM

SMILES: CCc1cc2c(s1)C(=O)N(CC(=O)Nc1ncc(Cl)cn1)CC21CC1 [Compound 54, N-(5-Chloropyrimidin-2-yl)-2-{2′-ethyl-7′-oxo-6′,7′-dihydro-5′H-spiro[cyclopropane-1,4′-thieno[2,3-c]pyridin]-6′-yl}acetamide]
- IC50: 100 to 1000 nM

SMILES: CCc1cc2c(s1)C(=O)N(CC(=O)Nc1ccc(C#N)cn1)CC21CC1 [Compound 55, N-(5-Cyanopyridin-2-yl)-2-{2′-ethyl-7′-oxo-6′,7′-dihydro-5′H-spiro[cyclopropane-1,4′-thieno[2,3-c]pyridin]-6′-yl}acetamide]
- IC50: 1000 to 3000 nM

SMILES: CCc1cc2c(s1)C(=O)N(CC(=O)Nc1ncc(C(F)(F)F)cc1F)CC21CC1 [Compound 56, 2-{2′-Ethyl-7′-oxo-6′,7′-dihydro-5′H-spiro[cyclopropane-1,4′-thieno[2,3-c]pyridin]-6′-yl}-N-[3-fluoro-5-(trifluoromethyl)pyridin-2-yl]acetamide]
- IC50: 1000 to 3000 nM

SMILES: CCc1cc2c(s1)C(=O)N(CC(=O)Nc1ncc(Cl)cc1F)CC21CC1 [Compound 57, N-(5-Chloro-3-fluoropyridin-2-yl)-2-{2′-ethyl-7′-oxo-6′,7′-dihydro-5′H-spiro[cyclopropane-1,4′-thieno[2,3-c]pyridin]-6′-yl}acetamide]
- IC50: 1000 to 3000 nM

SMILES: O=C(CN1CC2(CC2)c2oc(C3CC3)cc2C1=O)Nc1ccc2nncn2c1 [Compound 58, 2-{2′-Cyclopropyl-4′-oxo-5′,6′-dihydro-4′H-spiro[cyclopropane-1,7′-furo[3,2-c]pyridin]-5′-y}—N-{[1,2,4]triazolo[4,3-a]pyridin-6-yl}acetamide]
- IC50: 3000 to 10000 nM

SMILES: O=C(CN1CC2(CC2)c2oc(C3CC3)cc2C1=O)Nc1ccc2nncn2n1 [Compound 59, 2-{2′-Cyclopropyl-4′-oxo-5′,6′-dihydro-4′H-spiro[cyclopropane-1,7′-furo[3,2-c]pyridin]-5′-yl}-N-{[1,2,4]triazolo[4,3-b]pyridazin-6-yl}acetamide]
- IC50: 100 to 1000 nM

SMILES: CCc1cc2c(s1)C(=O)N(CC(=O)Nc1ncc(N)cn1)CC21CC1 [Compound 60, N-(5-Aminopyrimidin-2-yl)-2-{2′-ethyl-7′-oxo-6′,7′-dihydro-5′H-spiro[cyclopropane-1,4′-thieno[2,3-c]pyridin]-6′-yl}acetamide]
- IC50: 100 to 1000 nM

SMILES: CCc1cc2c(s1)C(=O)N(CC(=O)Nc1ncc(OC)cn1)CC21CC1 [Compound 61, 2-{2′-Ethyl-7′-oxo-6′,7′-dihydro-5′H-spiro[cyclopropane-1,4′-thieno[2,3-c]pyridin]-6′-yl}-N-(5-methoxypyrimidin-2-yl)acetamide]
- IC50: 100 to 1000 nM

SMILES: CCc1cc2c(s1)C(=O)N(CC(=O)Nc1ncc(O)cn1)CC21CC1 [Compound 62, 2-{2′-Ethyl-7′-oxo-6′,7′-dihydro-5′H-spiro[cyclopropane-1,4′-thieno[2,3-c]pyridin]-6′-yl}-N-(5-hydroxypyrimidin-2-yl)acetamide]
- IC50: 100 to 1000 nM

SMILES: CCc1cc2c(s1)C(=O)N(CC(=O)Nc1ncc(C#N)cn1)CC21CC1 [Compound 63, N-(5-Cyanopyrimidin-2-yl)-2-{2′-ethyl-7′-oxo-6′,7′-dihydro-5′H-spiro[cyclopropane-1,4′-thieno[2,3-c]pyridin]-6′-yl}acetamide]
- IC50: 100 to 1000 nM

SMILES: CC1CN(CC(=O)Nc2ncccn2)C(=O)c2cc(C3CC3)oc21 (stereo not drawn) [Compound 65, 2-(2-Cyclopropyl-7-methyl-4-oxo-6,7-dihydrofuro[3,2-c]pyridin-5(4H)-yl)-N-(pyrimidin-2-yl)acetamide]
- IC50: 100 to 1000 nM

SMILES: CCc1cc2c(s1)C(=O)N(CC(=O)Nc1ncc(C#N)cc1F)CC21CC1 [Compound 66, N-(5-cyano-3-fluoropyridin-2-yl)-2-(2′-ethyl-7′-oxo-5′H-spiro[cyclopropane-1,4′-thieno[2,3-c]pyridin]-6′(7′H)-yl)acetamide]
- IC50: 100 to 1000 nM

SMILES: CC1CN(CC(=O)Nc2ncccn2)C(=O)c2cc3scnc3n21 (stereo not drawn) [Compound 67, 2-(5-Methyl-8-oxo-5,6-dihydrothiazolo[5′,4′:4,5]pyrrolo[1,2-a]pyrazin-7(8H)-yl)-N-(pyrimidin-2-yl)acetamide]
- IC50: 100 to 1000 nM

SMILES: CCc1cc2c(s1)C(=O)N(CC(=O)Nc1ncc3[nH]c(=O)n(C)c3n1)CC21CC1 [Compound 68, 2-(2′-Ethyl-7′-oxo-5′H-spiro[cyclopropane-1,4′-thieno[2,3-c]pyridin]-6′(7′H)-yl)-N-(9-methyl-8-oxo-8,9-dihydro-7H-purin-2-yl)acetamide]
- IC50: 3000 to 10000 nM

SMILES: CCc1cc2c(s1)C(C)CN(CC(=O)Nc1ncccn1)C2=O (stereo not drawn) [Compound 69]
- IC50: 1000 to 3000 nM

SMILES: CC1CN(CC(=O)Nc2ncccn2)C(=O)c2cc(C3CC3)sc21 (stereo not drawn) [Compound 70, 2-(2-Cyclopropyl-7-methyl-4-oxo-6,7-dihydrothieno[3,2-c]pyridin-5(4H)-yl)-N-(pyrimidin-2-yl)acetamide]
- IC50: 3000 to 10000 nM

SMILES: CCc1cc2c(s1)C(=O)N(CC(=O)Nc1ncc3c(n1)[nH]c(=O)n3C)CC21CC1 [Compound 71, 2-(2′-Ethyl-7′-oxo-5′H-spiro[cyclopropane-1,4′-thieno[2,3-c]pyridin]-6′(7′H)-yl)-N-(7-methyl-8-oxo-8,9-dihydro-7H-purin-2-yl)acetamide]
- IC50: 1000 to 3000 nM

SMILES: CNc1nc2c(s1)C(=O)N(CC(=O)Nc1ncccn1)CC21CC1 [Compound 72, 2-(2′-(Methylamino)-4′-oxo-4′H-spiro[cyclopropane-1,7′-thiazolo[5,4-c]pyridin]-5′(6′H)-yl)-N-(pyrimidin-2-yl)acetamide]
- IC50: 3000 to 10000 nM
